# Test results from patent US8859557B2, “Substituted oxindole derivatives and their use as vasopressin receptor ligands” (Abbott GmbH & Co. KG, priority 2006, dated 2014).
# Columns and labels:
# [1] = target: human vasopressin V1a receptor (Homo sapiens, UniProt P37288); test: Vasopressin V1a receptor binding assay; conditions: selectivity for V1b over V1a, quotient of Ki values
# [2] = target: T1, human vasopressin V1b receptor (Homo sapiens, UniProt P47901); test: Vasopressin V1b receptor binding assay; conditions: displacement of 3H-AVP, membranes of CHO-K1 cells with human V1b receptor
# T1 construct: expressed in transfected cells; host or cells: CHO-K1 (cell line hV1b-3H2_CHO), membrane preparation
# T1 sequence (P47901 1-424): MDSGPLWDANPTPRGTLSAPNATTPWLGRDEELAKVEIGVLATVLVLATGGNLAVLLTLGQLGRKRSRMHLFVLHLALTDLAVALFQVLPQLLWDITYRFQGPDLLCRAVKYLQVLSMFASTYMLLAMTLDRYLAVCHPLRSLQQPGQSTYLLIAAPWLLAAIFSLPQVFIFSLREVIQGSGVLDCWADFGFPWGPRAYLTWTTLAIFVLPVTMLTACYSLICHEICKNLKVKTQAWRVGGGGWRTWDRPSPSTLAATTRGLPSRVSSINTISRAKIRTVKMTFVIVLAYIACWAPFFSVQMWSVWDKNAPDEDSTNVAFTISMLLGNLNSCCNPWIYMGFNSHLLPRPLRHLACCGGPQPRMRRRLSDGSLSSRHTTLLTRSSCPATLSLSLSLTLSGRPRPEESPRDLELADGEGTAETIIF
# Protocol: Methods for Determining the Biological Activity Vasopressin V1b Receptor Binding Assay: Substances:
# This series of DMSO predilutions was diluted 1:10 with assay buffer. The substance concentration was again diluted 1:5 in the assay mixture (2% DMSO in the mixture).
# All determinations were carried out as triplicate determinations.
# [3] = target: T2, recombinant human oxytocin receptors (Homo sapiens, UniProt P30559); test: Oxytocin receptor binding assay; conditions: selectivity for V1b over oxytocin receptor, quotient of Ki values
# T2 construct: expressed in transfected cells; host or cells: HEK-293, transient expression; lysed and homogenized cells
# T2 sequence (P30559 1-389): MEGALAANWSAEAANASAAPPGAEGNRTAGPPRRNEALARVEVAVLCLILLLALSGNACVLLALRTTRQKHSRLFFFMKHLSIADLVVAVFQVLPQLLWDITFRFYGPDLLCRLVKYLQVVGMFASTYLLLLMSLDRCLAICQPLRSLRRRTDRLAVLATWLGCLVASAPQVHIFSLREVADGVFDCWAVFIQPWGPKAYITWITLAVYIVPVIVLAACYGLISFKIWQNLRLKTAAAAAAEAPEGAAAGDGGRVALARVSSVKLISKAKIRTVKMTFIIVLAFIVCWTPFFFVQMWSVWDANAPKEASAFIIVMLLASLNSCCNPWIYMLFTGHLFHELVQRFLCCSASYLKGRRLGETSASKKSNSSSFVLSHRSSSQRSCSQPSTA
# Protocol: Oxytocin Receptor Binding Assay
# Confluent HEK-293 cells with transiently expressing recombinant human oxytocin receptors were centrifuged at 750×g and at room temperature for 5 minutes. The residue was taken up in ice-cold lysis buffer (50 mM Tris-HCl, 10% glycerol, pH 7.4 and Roche Complete Protease Inhibitor) and subjected to an osmotic shock at 4° C. for 20 minutes. The lyzed cells were then centrifuged at 750×g and at 4° C. for 20 minutes, the residue was taken up in incubation buffer, and aliquots of 10^7 cells/ml were prepared. The aliquots were frozen at −80° C. until used.
# On the day of the experiment, the cells were thawed, diluted with incubation buffer and homogenized using a Multipette Combitip (Eppendorf, Hamburg). […] The nonspecific binding was determined with 10^−6 M oxytocin (Bachem AG, H2510). Determinations in triplicate were set up. Bound and free radioligand were separated by filtration under vacuum with Whatman GF/B glass fibre filters using a Skatron cell harvester 7000. The bound radioactivity was determined by liquid scintillation measurement in a Tricarb beta counter, model 2000 or 2200CA (Packard).
# Sequence of human vasopressin V1a receptor (P37288 whole entry): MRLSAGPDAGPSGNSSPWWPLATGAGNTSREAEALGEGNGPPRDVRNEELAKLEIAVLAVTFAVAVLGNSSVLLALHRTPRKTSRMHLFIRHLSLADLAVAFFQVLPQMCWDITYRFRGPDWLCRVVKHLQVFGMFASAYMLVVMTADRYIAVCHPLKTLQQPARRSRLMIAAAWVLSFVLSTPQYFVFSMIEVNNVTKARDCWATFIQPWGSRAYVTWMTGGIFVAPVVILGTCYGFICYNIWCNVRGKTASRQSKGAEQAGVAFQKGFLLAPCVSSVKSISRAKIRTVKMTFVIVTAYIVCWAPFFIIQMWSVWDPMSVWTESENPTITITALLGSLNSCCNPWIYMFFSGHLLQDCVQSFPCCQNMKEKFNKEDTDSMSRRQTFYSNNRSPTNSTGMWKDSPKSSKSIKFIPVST
Ki(h-V1a)/Ki(h-V1b) [1],Ki [2] [nM],Ki(h-OT)/Ki(h-V1b) [3],SMILES
+ (15-50),10 to 50,+++ (>50),"CCOc1ncccc1C1(NC(=O)N2CCC(N3CCN(C)CC3)CC2)C(=O)N(S(=O)(=O)c2ccccc2OC)c2ccc(C#N)cc21 (racemic) [Example 32, N-[5-Cyano-3-(2-ethoxypyridin-3-yl)-1-[(2-methoxyphenyl)sulphonyl]-2-oxo-2,3-dihydro-1H-indol-3-yl]-4-(4-methylpiperazin-1-yl)piperidine-1-carboxamide]"
+++ (>100),< 10,+++ (>50),"CCOc1ncccc1C1(NC(=O)N2CCC(C3CCN(C)CC3)CC2)C(=O)N(S(=O)(=O)c2ccc(OC)cc2OC)c2ccc(C#N)cc21 (racemic) [Example 61, N-[5-Cyano-1-[(2,4-dimethoxyphenyl)sulphonyl]-3-(2-ethoxypyridin-3-yl)-2-oxo-2,3-dihydro-1H-indol-3-yl]-1′-methyl-4,4′-bipiperidine-1-carboxamide]"
+++ (>100),10 to 50,+++ (>50),"CCOc1ccccc1S(=O)(=O)N1C(=O)C(NC(=O)N2CCN(C3CCN(C)CC3)CC2)(c2cccnc2OCC)c2cc(C#N)ccc21.O=C(O)C(F)(F)F (racemic) [Example 3, N-[5-Cyano-1-[(2-ethoxyphenyl)sulphonyl]-3-(2-ethoxypyridin-3-yl)-2-oxo-2,3-dihydro-1H-indol-3-yl]-4-(1-methylpiperidin-4-yl)piperazine-1-carboxamide trifluoroacetate]"
+++ (>100),< 10,+++ (>50),"CCCN1CCN(C2CCN(C(=O)NC3(c4cccnc4OCC)C(=O)N(S(=O)(=O)c4ccc(OC)cc4OC)c4ccc(C#N)cc43)CC2)CC1 (racemic) [Example 43, N-[5-Cyano-1-[(2,4-dimethoxyphenyl)sulphonyl]-3-(2-ethoxypyridin-3-yl)-2-oxo-2,3-dihydro-1H-indol-3-yl]-4-(4-propylpiperazin-1-yl)piperidine-1-carboxamide]"
+++ (>100),10 to 50,+++ (>50),"CCOc1ncccc1C1(NC(=O)N2CCN(C3CCN(C)CC3)CC2)C(=O)N(S(=O)(=O)c2ccccc2OC)c2ccc(C#N)cc21 (racemic) [Example 2, N-{5-Cyano-3-(2-ethoxypyridin-3-yl)-1-[(2-methoxyphenyl)sulphonyl]-2-oxo-2,3-dihydro-1H-indol-3-yl}-4-(1-methylpiperidin-4-yl)piperazine-1-carboxamide]"
+++ (>100),< 10,+++ (>50),"CCOc1ncccc1C1(NC(=O)N2CCC(C3CCN(CC)CC3)CC2)C(=O)N(S(=O)(=O)c2ccc(OC)cc2OC)c2ccc(C#N)cc21.O=C(O)C(F)(F)F (racemic) [Example 67, N-[5-Cyano-1-[(2,4-dimethoxyphenyl)sulphonyl]-3-(2-ethoxypyridin-3-yl)-2-oxo-2,3-dihydro-1H-indol-3-yl]-1′-ethyl-4,4′-bipiperidine-1-carboxamide trifluoroacetate]"
+++ (>100),–,+++ (>50),"CCOc1ncccc1C1(NC(=O)N2CCC(C3CCN(C)CC3)CC2)C(=O)N(S(=O)(=O)c2ccc(OC)cc2OC)c2ccc(C#N)cc21.O=C(O)C(F)(F)F (single isomer, unassigned) [Example 61B, (−)-N-[5-Cyano-1-[(2,4-dimethoxyphenyl)sulphonyl)-3-(2-ethoxypyridin-3-yl)-2-oxo-2,3-dihydro-1H-indol-3-yl]-1′-methyl-4,4′-bipiperidine-1-carboxamide trifluoroacetate]"
